Holding throughout (format): cell-based
The test system of experiment [1] is human lung fibroblasts HFL1. Description: Anti-fibrosis activity test: inhibition of proliferation of human lung fibroblasts HFL1 (CCK-8). Particulars: Homo sapiens, HFL1, 48 h, human lung fibroblasts HFL1, CCK-8, 48 hours. In short, it runs like this: (§1)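 Seed 2×10^4 cells/mL; adhere 24 h, 37° C/5% CO2. Compounds, serial concentrations, triplicate, 48 h. CCK-8 2 h, A450. IR=(1−Ai/Ao)×100% vs blank; IC50 fitted. Pirfenidone as positive control.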

For experiment [2], the system named is BHK-21 cells. Description: Anti-fibrosis activity test: inhibition of BHK-21 cell proliferation (CCK-8). Particulars: Mesocricetus auratus, BHK-21, 48 h, CCK-8, 48 hours after administration. The method, boiled down:
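Cells seeded at 2×10^4 cells/mL, allowed to adhere 24 hours, then exposed to graded compound concentrations in triplicate for 48 hours at 37° C, 5% CO2. CCK-8 added for 2 hours, absorbance read at 450 nm; inhibition versus blank control used to derive IC50. Pirfenidone served as positive control.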

The test system of experiment [3] is human fibrosarcoma cells HT-1080. Description: Anti-fibrosis activity test: inhibition of proliferation of human fibrosarcoma cells HT-1080 (CCK-8). Particulars: Homo sapiens, HT-1080, 48 h, human fibrosarcoma cells HT-1080, CCK-8, 48 hours. The method, boiled down: as §1
The subject of experiment [4] is cardiac fibroblast RAT-iCell-C002. The experiment can be described thus: Anti-fibrosis activity test: inhibition of proliferation of cardiac fibroblast RAT-iCell-C002 (CCK-8). Particulars: Cardiac fibroblast, 48 h, cardiac fibroblast RAT-iCell-C002, CCK-8, 48 hours. In short, it runs like this: as §1
Experiment [5] relates to NF-κB. Description: Immunological activity test: inhibition of NF-κB activity. Particulars: initial concentration of 30 μM; a/b isomers given as first/second symbol; read-out: IC50 (μM), inhibitory activity against NF-κB. The text has this:
Main references for immunological activity test of the compounds of the present application includes: Vogl, S.; Atanasov, A. G.; Binder, M.; Bulusu, M.; Zehl, M.; Fakhrudin, N.; Heiss, E. H.; Picker, P.; Wawrosch, C.; Saukel, J.; Reznicek, G.; Urban, E.; Bochkov, V.; Dirsch, V. M.; Kopp, B. J. Evid-Based Complementary Alern. Med. 2013, ID 395316. Commercially available parthenolide was utilized as a positive control.
The ability of the compounds of the present application to inhibit NF-κB activity was tested at an initial concentration of 30 μM.
The assay data for the compounds of the present application were further analyzed to determine their IC50 values.

The subject of experiment [6] is human embryonic lung fibroblast IMR-90. The experiment can be described thus: Anti-fibrosis activity test: inhibition of proliferation of human embryonic lung fibroblast IMR-90 (CCK-8). Particulars: human embryonic lung fibroblast IMR-90, CCK-8, 48 hours. In short, it runs like this:
as §1

Experiment [7] concerns human hepatic stellate cells LX-2. The experiment can be described thus: Anti-fibrosis activity test: inhibition of proliferation of human hepatic stellate cells LX-2 (CCK-8). Particulars: Homo sapiens, 48 h, human hepatic stellate cells LX-2, CCK-8, 48 hours. In short, it runs like this: as §1
For experiment [8], the system named is human dermal fibroblasts CCC-ESF-1. Description: Anti-fibrosis activity test: inhibition of proliferation of human dermal fibroblasts CCC-ESF-1 (CCK-8). Particulars: Fibroblast; human dermal fibroblasts CCC-ESF-1, CCK-8, 48 hours. The method, boiled down:
as §1

As to `CC(C)=CCOc1c2c(nc3ccccc13)-c1cccn1C2=O` [Compound 9b, 9-((3-methylbut-2-en-1-yl)oxy)-10H-pyrrolizino[1,2-b]quinolin-10-one], the IC50 in experiment [1] fell in the range of 0.05 to 5 mM; in experiment [2], 5 to 20 mM; in experiment [3], 0.05 to 5 mM; in experiment [4] it was 0.05 to 5 mM; in experiment [5], 1 to 10 µM; in experiment [6] it was 0.05 to 5 mM. Besides, the IC50 was 0.05 to 5 mM in experiment [7] and 5 to 20 mM in experiment [8].

On to `O=C1c2c(n(-c3ccc(F)cc3)c3ccccc3c2=O)-c2cccn21` [Compound 18a, 4-(4-Fluorophenyl)-9H-pyrrolizino[1,2-b]quinoline-9,10(4H)-dione], for which the half-maximal inhibitory concentration (IC50) is 0.05 to 5 mM in experiment [1]; under 0.05 mM in experiment [2]; 0.05 to 5 mM in experiment [3]; 0.05 to 5 mM in experiment [4]; 0.1 to 1 µM in experiment [5]; 0.05 to 5 mM in experiment [6]. Moreover, the IC50 was in the range of 5 to 20 mM in experiment [7] and 0.05 to 5 mM in experiment [8].

In the case of `O=C1c2c(nc3ccccc3c2Oc2ccc(F)cc2)-c2cccn21` [Compound 18b, 9-(4-fluorophenoxy)-10H-pyrrolizino[1,2-b]quinolin-10-one], the IC50 in experiment [1] was 0.05 to 5 mM; in experiment [2], 0.05 to 5 mM; in experiment [3], 0.05 to 5 mM; in experiment [4] it was 0.05 to 5 mM; in experiment [5] it was 1 to 10 µM; in experiment [6], 0.05 to 5 mM. Further, the IC50 in experiment [7] and in experiment [8] was 0.05 to 5 mM in each case.

As to `O=C1c2c(n(-c3ccc(Cl)cc3)c3ccccc3c2=O)-c2cccn21` [Compound 34a, 4-(4-Chlorophenyl)-9H-pyrrolizino[1,2-b]quinoline-9,10(4H)-dione], the IC50 in experiment [1] was 0.05 to 5 mM; in experiment [2], under 0.05 mM; in experiment [3], 0.05 to 5 mM; in experiment [4], 0.05 to 5 mM; in experiment [5], 0.1 to 1 µM; in experiment [6] it was 0.05 to 5 mM. The values for the IC50 in experiment [7] and in experiment [8] were 0.05 to 5 mM and 5 to 20 mM, respectively.

Consider `O=C1c2c(nc3ccccc3c2Oc2ccc(Cl)cc2)-c2cccn21` [Compound 34b, 9-(4-chlorophenoxy)-10H-pyrrolizino[1,2-b]quinolin-10-one], for which the IC50 in experiment [1] fell in the range of 0.05 to 5 mM; in experiment [2] it was 0.05 to 5 mM; in experiment [3] it was 0.05 to 5 mM; in experiment [4], 0.05 to 5 mM; in experiment [5] it was 1 to 10 µM; in experiment [6], 0.05 to 5 mM. For the same compound, the values for the IC50 in experiment [7] and in experiment [8] were 0.05 to 5 mM and under 0.05 mM, respectively.

Consider `O=C1c2c(n(-c3ccc(Br)cc3)c3ccccc3c2=O)-c2cccn21` [Compound 64a, 4-(4-Bromophenyl)-9H-pyrrolizino[1,2-b]quinoline-9,10(4H)-dione], for which the IC50 in experiment [1] is 0.05 to 5 mM; in experiment [2], 0.05 to 5 mM; in experiment [3] it was 0.05 to 5 mM; in experiment [4], 0.05 to 5 mM; in experiment [5] it was 1 to 10 µM; in experiment [6], 0.05 to 5 mM. Also, the concentration for half-maximal inhibition (IC50) in experiment [7] and in experiment [8] was 0.05 to 5 mM each time.

`O=C1c2c(nc3ccccc3c2Oc2ccc(Br)cc2)-c2cccn21` [Compound 64b, 9-(4-bromophenoxy)-10H-pyrrolizino[1,2-b]quinolin-10-one]: the IC50 in experiment [1] is 0.05 to 5 mM; in experiment [2], 0.05 to 5 mM; in experiment [3] it was 0.05 to 5 mM; in experiment [4] it was 0.05 to 5 mM; in experiment [5], 1 to 10 µM; in experiment [6] it was 0.05 to 5 mM. Besides, the IC50 in experiment [7] and in experiment [8] was 0.05 to 5 mM in each case.

Consider `N#Cc1ccc2c(=O)c3c(n(Cc4ccc(F)cc4)c2c1)-c1cccn1C3=O` [Compound 514a, 4-(4-Fluorobenzyl)-9,10-dioxo-4,10-dihydro-9H-pyrrolizino[1,2-b]quinoline-6-carbonitrile], for which the IC50 is 0.05 to 5 mM in experiment [1]; under 0.05 mM in experiment [2]; 0.05 to 5 mM in experiment [3]; 0.05 to 5 mM in experiment [4]; 1 to 10 µM in experiment [5]; 0.05 to 5 mM in experiment [6]. The IC50 in experiment [7] and in experiment [8] was 0.05 to 5 mM each time.

Turning to `N#Cc1ccc2c(OCc3ccc(F)cc3)c3c(nc2c1)-c1cccn1C3=O` [Compound 514b, 9-((4-fluorobenzyl)oxy)-10-oxo-10H-pyrrolizino[1,2-b]quinoline-6-carbonitrile], the IC50 in experiment [1] fell in the range of 0.05 to 5 mM; in experiment [2] it was 0.05 to 5 mM; in experiment [3] it was 0.05 to 5 mM; in experiment [4], 0.05 to 5 mM; in experiment [5], 1 to 10 µM; in experiment [6] it was 0.05 to 5 mM. Further, the IC50 in experiment [7] and in experiment [8] was 0.05 to 5 mM throughout.

Regarding `N#Cc1ccc2c(=O)c3c(n(Cc4cccc(F)c4)c2c1)-c1cccn1C3=O` [Compound 515a, 4-(3-Fluorobenzyl)-9,10-dioxo-4,10-dihydro-9H-pyrrolizino[1,2-b]quinoline-6-carbonitrile], the IC50 fell in the range of 0.05 to 5 mM in experiment [1]; 0.05 to 5 mM in experiment [2]; 5 to 20 mM in experiment [3]; 0.05 to 5 mM in experiment [4]; 1 to 10 µM in experiment [5]; 0.05 to 5 mM in experiment [6]. Also, the half-maximal inhibitory concentration (IC50) in experiment [7] and in experiment [8] was 0.05 to 5 mM in each case.

Take `N#Cc1ccc2c(OCc3cccc(F)c3)c3c(nc2c1)-c1cccn1C3=O` [Compound 515b, 9-((3-fluorobenzyl)oxy)-10-oxo-10H-pyrrolizino[1,2-b]quinoline-6-carbonitrile]: the IC50 was 0.05 to 5 mM in experiment [1]; 0.05 to 5 mM in experiment [2]; 5 to 20 mM in experiment [3]; under 0.05 mM in experiment [4]; 1 to 10 µM in experiment [5]; 5 to 20 mM in experiment [6]. Also, the IC50 in experiment [7] and in experiment [8] was 0.05 to 5 mM each time.

Turning to `N#Cc1ccc2c(=O)c3c(n(Cc4ccccc4F)c2c1)-c1cccn1C3=O` [Compound 516a, 4-(2-Fluorobenzyl)-9,10-dioxo-4,10-dihydro-9H-pyrrolizino[1,2-b]quinoline-6-carbonitrile], the IC50 in experiment [1] is 0.05 to 5 mM; in experiment [2], under 0.05 mM; in experiment [3], 0.05 to 5 mM; in experiment [4] it was 0.05 to 5 mM; in experiment [5], 0.1 to 1 µM; in experiment [6], 0.05 to 5 mM. In addition, the IC50 in experiment [7] and in experiment [8] was 0.05 to 5 mM throughout.

`N#Cc1ccc2c(OCc3ccccc3F)c3c(nc2c1)-c1cccn1C3=O` [Compound 516b, 9-((2-fluorobenzyl)oxy)-10-oxo-10H-pyrrolizino[1,2-b]quinoline-6-carbonitrile]: the IC50 is 0.05 to 5 mM in experiment [1]; 0.05 to 5 mM in experiment [2]; 0.05 to 5 mM in experiment [3]; 0.05 to 5 mM in experiment [4]; 0.1 to 1 µM in experiment [5]; 0.05 to 5 mM in experiment [6]. In addition, the IC50 in experiment [7] and in experiment [8] was 0.05 to 5 mM throughout.

Regarding `O=C1c2c(n(Cc3ccc(Cl)cc3)c3cc(C(F)(F)F)ccc3c2=O)-c2cccn21` [Compound 544a, 4-(4-Chlorobenzyl)-6-(trifluoromethyl)-9H-pyrrolizino[1,2-b]quinoline-9,10(4H)-dione], the IC50 in experiment [1] was 0.05 to 5 mM; in experiment [2], under 0.05 mM; in experiment [3], 0.05 to 5 mM; in experiment [4] it was 0.05 to 5 mM; in experiment [5], 10 to 50 µM; in experiment [6], 0.05 to 5 mM. Besides, the IC50 in experiment [7] and in experiment [8] was 0.05 to 5 mM throughout.

As to `O=C1c2c(nc3cc(C(F)(F)F)ccc3c2OCc2ccc(Cl)cc2)-c2cccn21` [Compound 544b, 9-((4-chlorobenzyl)oxy)-6-(trifluoromethyl)-10H-pyrrolizino[1,2-b]quinolin-10-one], the IC50 is 0.05 to 5 mM in experiment [1]; 0.05 to 5 mM in experiment [2]; 0.05 to 5 mM in experiment [3]; 0.05 to 5 mM in experiment [4]; 1 to 10 µM in experiment [5]; 0.05 to 5 mM in experiment [6]. Also, the IC50 in experiment [7] and in experiment [8] was 0.05 to 5 mM each time.

Regarding `O=C1c2c(n(Cc3cccc(Cl)c3)c3cc(C(F)(F)F)ccc3c2=O)-c2cccn21` [Compound 545a, 4-(3-Chlorobenzyl)-6-(trifluoromethyl)-9H-pyrrolizino[1,2-b]quinoline-9,10(4H)-dione], the IC50 lay in the range of 0.05 to 5 mM in experiment [1]; 0.05 to 5 mM in experiment [2]; 5 to 20 mM in experiment [3]; 0.05 to 5 mM in experiment [4]; 1 to 10 µM in experiment [5]; 0.05 to 5 mM in experiment [6]. Moreover, the IC50 in experiment [7] and in experiment [8] was 0.05 to 5 mM each time.

Usually IC50 stands for the midpoint of a concentration-inhibition curve.

These data come from US11040028B2, “Penicinotam derivative, preparation method and use thereof” (OCEAN UNIVERSITY OF CHINA, priority 2017, dated 2021).
